Paper PMC3763632, “Radiosynthesis and Radiotracer Properties of a 7-(2-[^18F]Fluoroethoxy)-6-methoxypyrrolidinylquinazoline for Imaging of Phosphodiesterase 10A with PET” (Pharmaceuticals, 2012)
“And” between values parts separate entries of the source, which are not always exact repeats. Equal entries are not always repeated.

Experiments:
[1] = system: PDE10A; assay: In vivo blocking study (pre-injection of PDE10A inhibitor); design: species or system mice
Method: The observed slightly increase in the uptake of radioactivity in most organs might be caused by an increase in the free fraction of [^18F]IV in plasma or changes in physiological parameters such as blood flow due to high concentrations of the blocking compounds.
Specificity of brain and in particular striatal uptake of [^18F]IV was investigated in blocking studies by intraperitoneal injection of 10 mg/kg of I [31] […] (n = 3), dissolved in 200 µL saline at 10 min before the radiotracer. Mice were sacrificed at 60 min p.i., and the radioligand uptake was determined as described above. Data listed in table 2 are given as mean values ± standard deviation (SD).

[2] = Biodistribution after i.v. injection; type: in vivo, female CD-1 mice; details: for striatum-to-blood ratio: mice
Method: The organ distribution of [^18F]IV after i.v. injection was investigated in female CD-1 mice. Time-activity data for ^18F corresponding uptake in peripheral organs, in the brain and in particular in the striatum at 5, 30, 60 and 120 min p.i. are presented in Table 2.
Conscious mice received a tail-vein injection of about 300 kBq of [^18F]IV, dissolved in 200 µL isotonic saline. At 5, 30, 60 and 120 min p.i. animals (n = 3–6 per time) were anaesthetized, and blood and urine samples were taken. After sacrifice, organs of interest were removed, separated, weighed, and radioactivity was measured in a calibrated γ-counter (Wallac WIZARD, Perkin Elmer, Waltham, MA, USA). Striatum was dissected from the brain and investigated separately. The percentage of the injected dose per gram of wet tissue (% ID/g) was calculated by the quotient of tissue counts and initial dose counts, and weight of the tissue sample.

[3] = blocking with 10 mg/kg I, 60 min p.i.
[4] = blocking with 10 mg/kg MP-10, 60 min p.i.

## COc1cc2c(N3CC[C@@H](Oc4cnc5ccccc5n4)C3)ncnc2cc1OCC[18F] [[^18F]IV, (R)-7-(2-[^18F]Fluoroethoxy)-6-methoxy-4-(3-(quinoxalin-2-yloxy)pyrrolidin-1-yl)quinazoline]
[1]; 10 mg/kg i.p. 10 min before radiotracer, 60 min p.i., p > 0.05
  change in accumulated radioactivity in PDE10A-expressing organs after pre-injection of MP-10 or compound I: no significant changes
[1]; [3]
  18F uptake, Adrenals: 51.1 ± 17.9 % ID/g
  18F uptake, Bladder: 2.20 ± 0.49 % ID/g
  18F uptake, Blood: 1.72 ± 0.16 % ID/g
  18F uptake, Brain: 1.13 ± 0.17 % ID/g
  18F uptake, Colon: 1.07 ± 0.22 % ID/g
  18F uptake, Femurs: 1.62 ± 0.72 % ID/g
  18F uptake, Femurs (fl.) (flushed): 0.81 ± 0.13 % ID/g
  18F uptake, Gonads: 3.30 ± 0.29 % ID/g
  18F uptake, Heart: 2.30 ± 0.22 % ID/g
  18F uptake, Intestine: 44.3 ± 9.58 % ID/g
  18F uptake, Kidneys: 4.01 ± 0.54 % ID/g
  18F uptake, Liver: 12.9 ± 1.08 % ID/g
  18F uptake, Lungs: 2.62 ± 0.44 % ID/g
  18F uptake, Muscles: 1.27 ± 0.25 % ID/g
  18F uptake, Pancreas: 2.25 ± 0.26 % ID/g
  18F uptake, Plasma: 2.70 ± 0.24 % ID/g
  18F uptake, Skin: 2.26 ± 0.82 % ID/g
  18F uptake, Spleen: 2.48 ± 0.68 % ID/g
  18F uptake, Stomach: 13.8 ± 1.65 % ID/g
  18F uptake, Striatum: 1.28 ± 0.27 % ID/g
  18F uptake, Thymus: 2.22 ± 0.08 % ID/g
  18F uptake, Urine: 18.0 ± 9.26 % ID/g
[1]; [4]
  18F uptake, Adrenals: 36.0 ± 9.51 % ID/g
  18F uptake, Bladder: 2.93 ± 0.51 % ID/g
  18F uptake, Blood: 1.85 ± 0.50 % ID/g
  18F uptake, Brain: 1.30 ± 0.20 % ID/g
  18F uptake, Colon: 1.78 ± 0.78 % ID/g
  18F uptake, Femurs: 1.73 ± 0.58 % ID/g
  18F uptake, Femurs (fl.) (flushed): 0.92 ± 0.23 % ID/g
  18F uptake, Gonads: 4.10 ± 1.41 % ID/g
  18F uptake, Heart: 2.89 ± 0.42 % ID/g
  18F uptake, Intestine: 14.8 ± 4.16 % ID/g
  18F uptake, Kidneys: 5.87 ± 1.56 % ID/g
  18F uptake, Liver: 17.7 ± 3.87 % ID/g
  18F uptake, Lungs: 2.95 ± 0.86 % ID/g
  18F uptake, Muscles: 1.29 ± 0.37 % ID/g
  18F uptake, Pancreas: 3.19 ± 0.91 % ID/g
  18F uptake, Plasma: 3.34 ± 1.00 % ID/g
  18F uptake, Skin: 2.43 ± 0.44 % ID/g
  18F uptake, Spleen: 3.00 ± 0.79 % ID/g
  18F uptake, Stomach: 14.6 ± 7.83 % ID/g
  18F uptake, Striatum: 1.38 ± 0.30 % ID/g
  18F uptake, Thymus: 2.55 ± 0.62 % ID/g
  18F uptake, Urine: 14.7 ± 7.17 % ID/g
[2]; 30 min p.i.
  striatum-to-blood ratio: 1.0
[2]; 60 min p.i.
  striatum-to-blood ratio: 0.8
[2]; 120 min p.i.
  striatum-to-blood ratio: 0.8
[2]; control, 5 min p.i.
  18F uptake, Adrenals: 25.4 ± 5.87 % ID/g Wet Weight
  18F uptake, Bladder: 1.85 ± 0.39 % ID/g Wet Weight
  18F uptake, Blood: 1.88 ± 0.08 % ID/g Wet Weight
  18F uptake, Brain: 1.99 ± 0.21 % ID/g Wet Weight
  18F uptake, Colon: 0.55 ± 0.05 % ID/g Wet Weight
  18F uptake, Femurs: 2.00 ± 0.36 % ID/g Wet Weight
  18F uptake, Femurs (fl.) (flushed): 1.11 ± 0.32 % ID/g Wet Weight
  18F uptake, Gonads: 2.58 ± 0.46 % ID/g Wet Weight
  18F uptake, Heart: 4.01 ± 0.47 % ID/g Wet Weight
  18F uptake, Intestine: 13.5 % ID/g Wet Weight and 13.5 ± 4.15 % ID/g Wet Weight
  18F uptake, Kidneys: 7.65 ± 0.54 % ID/g Wet Weight
  18F uptake, Liver: 20.5 % ID/g Wet Weight and 20.5 ± 1.87 % ID/g Wet Weight
  18F uptake, Lungs: 4.01 ± 0.51 % ID/g Wet Weight
  18F uptake, Muscles: 1.75 ± 0.12 % ID/g Wet Weight
  18F uptake, Pancreas: 5.19 ± 0.42 % ID/g Wet Weight
  18F uptake, Plasma: 3.97 ± 1.41 % ID/g Wet Weight
  18F uptake, Spleen: 4.23 ± 0.51 % ID/g Wet Weight
  18F uptake, Stomach: 6.14 ± 2.04 % ID/g Wet Weight
  18F uptake, Striatum: 2.3 % ID/g Wet Weight and 2.32 % ID/g Wet Weight and 2.32 ± 0.49 % ID/g Wet Weight
